The values below come from PMC8286840, “Identifying SARS-CoV-2 antiviral compounds by screening for small molecule inhibitors of Nsp3 papain-like protease” (Biochemical Journal, 2021).

Test [1] has as its target T1, SARS-CoV-2 PLpro (nsp3 1564–1878) (Severe acute respiratory syndrome coronavirus 2, UniProt P0DTD1). Nature of the test: biochemical. More on the design: FRET-quenched peptide (Pro3) cleavage by PLpro, 10 min pre-incubation, slope over 20 min, normalised to no-compound control. The conditions noted are these: low concentration screen, read-out: % of control remaining.

The target of test [2] is T1, SARS-CoV-2 PLpro (nsp3 1564–1878). The test is described as follows: biochemical. More on the design: FRET-quenched peptide (Pro3) cleavage by PLpro, 10 min pre-incubation, slope over 20 min, normalised to no-compound control. The settings on record: high concentration screen, read-out: % of control remaining.

The structures appear in SMILES notation. Where a name gives a salt, the structure may show the parent alone. Read-outs that look alike come from different tables or passages of the source.

On to `COc1ccc(-c2cc(=O)c3c(O)cc(O)cc3o2)cc1O` [Diosmetine], for which the remaining activity at 1.25 µM in test [1] (Well no.=3573) turned out to be 97.4%. In test [2] (Well no.=3573), the remaining activity at 3.75 µM came to 97.7%.
As to `COc1ccc(-c2cc(=O)c3c(O)cc(O[C@@H]4O[C@H](CO[C@@H]5O[C@@H](C)[C@H](O)[C@@H](O)[C@H]5O)[C@@H](O)[C@H](O)[C@H]4O)cc3o2)cc1O` [Diosmin], the remaining activity at 1.25 µM in test [1] (Well no.=3597) was 95.3%. Further, the remaining activity at 3.75 µM in test [2] (Well no.=3597) is 97.4%.
`C[N+]1(C)CCC(=C(c2ccccc2)c2ccccc2)CC1` [Diphemanil Methylsulfate]: the remaining activity at 1.25 µM in test [1] (Well no.=5118) amounted to 109%. Besides, the remaining activity at 3.75 µM in test [2] (Well no.=5118) turned out to be 108%.
Take `OC(CCCN1CCCCC1)(c1ccccc1)c1ccccc1` [Diphenidol (hydrochloride)]: the remaining activity at 1.25 µM in test [1] (Well no.=7621) came to 102%. The remaining activity at 3.75 µM in test [2] (Well no.=7621) amounted to 102%.
Take `Cc1cc(-c2ccc(N=Nc3c(S(=O)(=O)O)cc4cc(S(=O)(=O)O)cc(N)c4c3O)c(C)c2)ccc1N=Nc1c(S(=O)(=O)O)cc2cc(S(=O)(=O)O)cc(N)c2c1O` [Diphenyl Blue]: the remaining activity at 1.25 µM in test [1] (Well no.=7598) was found to be 89.8%. In addition, the remaining activity at 3.75 µM in test [2] (Well no.=7598) stood at 89.2%.
As to `c1ccc2c(c1)[I+]c1ccccc1-2` [Diphenyleneiodonium chloride], the remaining activity at 1.25 µM in test [1] (Well no.=591) turned out to be 99.6%. Besides, in test [2] (Well no.=591), the remaining activity at 3.75 µM is 105%.
Consider `CN1CCC(OC(c2ccccc2)c2ccccc2)CC1` [Diphenylpyraline (hydrochloride)], for which the remaining activity at 1.25 µM in test [1] (Well no.=6853) amounted to 100%. Also, in test [2] (Well no.=6853), the remaining activity at 3.75 µM stood at 102%.
Take `Cn1c(=O)c2c(ncn2CC(O)CO)n(C)c1=O` (stereo not drawn) [Diphylline]: the remaining activity at 1.25 µM was found to be 106% in test [1] (Well no.=7387) and 101% in test [1] (Well no.=8273). The values for the remaining activity at 3.75 µM in test [2] (Well no.=7387) and in test [2] (Well no.=8273) were 105% and 98.7%, respectively.
On to `CCCN(CCC)CCc1ccc(O)c(O)c1` [Dipropyldopamine hydrobromide], for which the remaining activity at 1.25 µM in test [1] (Well no.=684) was 98.3%. Further, the remaining activity at 3.75 µM in test [2] (Well no.=684) is 98.3%.
`CC[C@H](C)[C@H](N)C(=O)N1CCC[C@H]1C(=O)N[C@H](C(=O)O)[C@@H](C)CC` [Diprotin A (TFA)]: the remaining activity at 1.25 µM in test [1] (Well no.=8464) worked out at 104%. Besides, the remaining activity at 3.75 µM in test [2] (Well no.=8464) stood at 101%.
In the case of `CC(C)=CCC[C@](C)(O)[C@H]1CC[C@]2(C)[C@@H]1CC[C@@H]1[C@@]3(C)CCC(=O)C(C)(C)[C@@H]3CC[C@]12C` [Dipterocarpol], the remaining activity at 1.25 µM in test [1] (Well no.=3204) is 105%. Besides, the remaining activity at 3.75 µM in test [2] (Well no.=3204) is 106%.
With `OCCN(CCO)c1nc(N2CCCCC2)c2nc(N(CCO)CCO)nc(N3CCCCC3)c2n1` [Dipyridamole], the remaining activity at 1.25 µM turned out to be 103% in test [1] (Well no.=682) and 95.1% in test [1] (Well no.=1863). Also, the remaining activity at 3.75 µM stood at 100% in test [2] (Well no.=682) and 94.7% in test [2] (Well no.=1863).
For the compound `O=c1ccn([C@@H]2O[C@H](COP(=O)(O)OP(=O)(O)OP(=O)(O)OP(=O)(O)OC[C@H]3O[C@@H](n4ccc(=O)[nH]c4=O)[C@H](O)[C@@H]3O)[C@@H](O)[C@H]2O)c(=O)[nH]1` [Diquafosol (tetrasodium)], in test [1] (Well no.=8837), the remaining activity at 1.25 µM amounted to 101%. Also, the remaining activity at 3.75 µM in test [2] (Well no.=8095) worked out at 100%; in test [2] (Well no.=8837), 87.9%.
Turning to `O=C(O)c1cc(=O)c2c(OCC(O)COc3cccc4oc(C(=O)O)cc(=O)c34)cccc2o1` [Disodium Cromoglycate], the remaining activity at 1.25 µM in test [1] (Well no.=1857) worked out at 102%. In addition, the remaining activity at 3.75 µM in test [2] (Well no.=1857) was determined as 100%.
Consider `CC(C)N(CCC(C(N)=O)(c1ccccc1)c1ccccn1)C(C)C` (stereo not drawn) [Disopyramide phosphate salt], for which the remaining activity at 1.25 µM in test [1] (Well no.=5508) worked out at 105%. Moreover, the remaining activity at 3.75 µM in test [2] (Well no.=5508) stood at 103%.
Consider `CC(C)N(CCC(C(N)=O)(c1ccccc1)c1ccccn1)C(C)C` (stereo not drawn) [Disopyramide phosphate], for which the remaining activity at 1.25 µM in test [1] (Well no.=436) is 97.6%. The remaining activity at 3.75 µM in test [2] (Well no.=436) came out at 98.8%.
Turning to `CC(C)N(CCC(C(N)=O)(c1ccccc1)c1ccccn1)C(C)C` (stereo not drawn) [Disopyramide], the remaining activity at 1.25 µM in test [1] (Well no.=390) came to 101%. Moreover, in test [2] (Well no.=390), the remaining activity at 3.75 µM was 101%.
